Reference: PubChem BioAssay AID1259407 (Chemical Carcinogenesis Research Information System (CCRIS), 2018)
Active and inactive are the calls of the source. The rule behind the calls is not given here.

System: CCRIS mutagenicity, Ames/micronucleus/aberration tests
Test: CCRIS mutagenicity studies
[1] = Test System: AMES SALMONELLA TYPHIMURIUM, Strain/Indicator: TA98, Metabolic Activation: NONE, Method: STANDARD PLATE
[2] = Test System: AMES SALMONELLA TYPHIMURIUM, Strain/Indicator: TA100, Metabolic Activation: NONE, Method: STANDARD PLATE
[3] = Test System: AMES SALMONELLA TYPHIMURIUM, Strain/Indicator: TA98, Metabolic Activation: NONE, Method: PREINCUBATION
[4] = Test System: AMES SALMONELLA TYPHIMURIUM, Strain/Indicator: TA100, Metabolic Activation: NONE, Method: PREINCUBATION

SMILES: CN(C)N=Nc1ccc([N+](=O)[O-])cc1
- mutagenic call (Test System: AMES SALMONELLA TYPHIMURIUM, Strain/Indicator: TA92, Metabolic Activation: MOUSE, LIVER, S-9, POLYCHLORINATED BIPHENYLS, Method: PREINCUBATION): active; positive
- mutagenic call (Test System: AMES SALMONELLA TYPHIMURIUM, Strain/Indicator: TA92, Metabolic Activation: MOUSE, LIVER, S-9, POLYCHLORINATED BIPHENYLS, Method: STANDARD PLATE): active; positive
- mutagenic call (Test System: AMES SALMONELLA TYPHIMURIUM, Strain/Indicator: TA92, Metabolic Activation: NONE, Method: STANDARD PLATE): active; positive
- mutagenic call (Test System: AMES SALMONELLA TYPHIMURIUM, Strain/Indicator: TA97, Metabolic Activation: MOUSE, LIVER, S-9, POLYCHLORINATED BIPHENYLS, Method: PREINCUBATION): active; positive
- mutagenic call (Test System: AMES SALMONELLA TYPHIMURIUM, Strain/Indicator: TA97, Metabolic Activation: MOUSE, LIVER, S-9, POLYCHLORINATED BIPHENYLS, Method: STANDARD PLATE): active; positive
- mutagenic call (Test System: AMES SALMONELLA TYPHIMURIUM, Strain/Indicator: TA97, Metabolic Activation: NONE, Method: STANDARD PLATE): active; positive
- mutagenic call (Test System: AMES SALMONELLA TYPHIMURIUM, Strain/Indicator: TA98, Metabolic Activation: MOUSE, LIVER, S-9, POLYCHLORINATED BIPHENYLS, Method: PREINCUBATION): active; positive
- mutagenic call (Test System: AMES SALMONELLA TYPHIMURIUM, Strain/Indicator: TA98, Metabolic Activation: MOUSE, LIVER, S-9, POLYCHLORINATED BIPHENYLS, Method: STANDARD PLATE): active; positive
- mutagenic call [1]: active; positive
- mutagenic call (Test System: AMES SALMONELLA TYPHIMURIUM, Strain/Indicator: TA100, Metabolic Activation: MOUSE, LIVER, S-9, POLYCHLORINATED BIPHENYLS, Method: PREINCUBATION): active; positive
- mutagenic call (Test System: AMES SALMONELLA TYPHIMURIUM, Strain/Indicator: TA100, Metabolic Activation: MOUSE, LIVER, S-9, POLYCHLORINATED BIPHENYLS, Method: STANDARD PLATE): active; positive
- mutagenic call [2]: active; positive
- mutagenic call (Test System: AMES SALMONELLA TYPHIMURIUM, Strain/Indicator: TA1535, Metabolic Activation: MOUSE, LIVER, S-9, POLYCHLORINATED BIPHENYLS, Method: PREINCUBATION): active; positive
- mutagenic call (Test System: AMES SALMONELLA TYPHIMURIUM, Strain/Indicator: TA1535, Metabolic Activation: MOUSE, LIVER, S-9, POLYCHLORINATED BIPHENYLS, Method: STANDARD PLATE): active; positive
- mutagenic call (Test System: AMES SALMONELLA TYPHIMURIUM, Strain/Indicator: TA1535, Metabolic Activation: NONE, Method: STANDARD PLATE): active; positive
- mutagenic call (Test System: AMES SALMONELLA TYPHIMURIUM, Strain/Indicator: TA1537, Metabolic Activation: MOUSE, LIVER, S-9, POLYCHLORINATED BIPHENYLS, Method: PREINCUBATION): active; positive
- mutagenic call (Test System: AMES SALMONELLA TYPHIMURIUM, Strain/Indicator: TA1537, Metabolic Activation: MOUSE, LIVER, S-9, POLYCHLORINATED BIPHENYLS, Method: STANDARD PLATE): active; positive
- mutagenic call (Test System: AMES SALMONELLA TYPHIMURIUM, Strain/Indicator: TA1537, Metabolic Activation: NONE, Method: STANDARD PLATE): active; positive
- mutagenic call (Test System: AMES SALMONELLA TYPHIMURIUM, Strain/Indicator: TA1538, Metabolic Activation: MOUSE, LIVER, S-9, POLYCHLORINATED BIPHENYLS, Method: PREINCUBATION): active; positive
- mutagenic call (Test System: AMES SALMONELLA TYPHIMURIUM, Strain/Indicator: TA1538, Metabolic Activation: MOUSE, LIVER, S-9, POLYCHLORINATED BIPHENYLS, Method: STANDARD PLATE): active; positive
- mutagenic call (Test System: AMES SALMONELLA TYPHIMURIUM, Strain/Indicator: TA1538, Metabolic Activation: NONE, Method: STANDARD PLATE): active; positive

SMILES: Cn1c(NS(=O)(=O)O)nc2c3nc(CO)cnc3ccc21
- mutagenic call [3]: inactive; negative
- mutagenic call (Test System: AMES SALMONELLA TYPHIMURIUM, Strain/Indicator: TA98, Metabolic Activation: RAT, LIVER, S-9, AROCLOR 1254, Method: PREINCUBATION): inactive; negative

SMILES: COC(=O)c1oc(NOC(C)=O)c(-c2ccccc2)c1-c1ccccc1
- mutagenic call [3]: inactive; negative
- mutagenic call (Test System: AMES SALMONELLA TYPHIMURIUM, Strain/Indicator: TA98, Metabolic Activation: RAT, LIVER, S-9, AROCLOR, Method: PREINCUBATION): inactive; negative
- mutagenic call [4]: inactive; negative
- mutagenic call (Test System: AMES SALMONELLA TYPHIMURIUM, Strain/Indicator: TA100, Metabolic Activation: RAT, LIVER, S-9, AROCLOR, Method: PREINCUBATION): inactive; negative

SMILES: Cc1cc(N=Nc2ccccc2C)c(N)cc1N
- mutagenic call (Test System: AMES SALMONELLA TYPHIMURIUM, Strain/Indicator: TA100, Metabolic Activation: HUMAN, LIVER, S-9, Method: PREINCUBATION): inactive; negative
- mutagenic call (Test System: AMES SALMONELLA TYPHIMURIUM, Strain/Indicator: TA100, Metabolic Activation: RAT, LIVER, S-9, BETA-NAPHTHOFLAVONE, Method: PREINCUBATION): active; positive
- mutagenic call (Test System: AMES SALMONELLA TYPHIMURIUM, Strain/Indicator: TA100, Metabolic Activation: RAT, LIVER, S-9, PHENOBARBITAL, Method: PREINCUBATION): active; positive
- mutagenic call (Test System: AMES SALMONELLA TYPHIMURIUM, Strain/Indicator: TA100, Metabolic Activation: RAT, LIVER, S-9, Method: PREINCUBATION): active; positive
- mutagenic call (Test System: UDS RODENT HEPATOCYTES, Strain/Indicator: THY INCORP, Metabolic Activation: NONE, Method: AUTORADIOGRAPHY): active; positive

SMILES: N[C@@H](Cc1cc(I)c(Oc2cc(I)c(O)c(I)c2)c(I)c1)C(=O)O
- mutagenic call (End Point: In vitro micronucleus, Test System: Human peripheral blood lymphocytes, Metabolic Activation: None): inactive; negative

SMILES: CC(C)(C)OOC(=O)c1ccccc1
- mutagenic call (Test System: AMES SALMONELLA TYPHIMURIUM, Strain/Indicator: TA98, Metabolic Activation: HAMSTER, LIVER, S-9, AROCLOR 1254 (10%), Method: PREINCUBATION): active; positive
- mutagenic call [3]: active; positive
- mutagenic call (Test System: AMES SALMONELLA TYPHIMURIUM, Strain/Indicator: TA98, Metabolic Activation: RAT, LIVER, S-9, AROCLOR 1254 (10%), Method: PREINCUBATION): active; positive
- mutagenic call (Test System: AMES SALMONELLA TYPHIMURIUM, Strain/Indicator: TA100, Metabolic Activation: HAMSTER, LIVER, S-9, AROCLOR 1254 (10%), Method: PREINCUBATION): active; positive
- mutagenic call [4]: inactive; negative
- mutagenic call (Test System: AMES SALMONELLA TYPHIMURIUM, Strain/Indicator: TA100, Metabolic Activation: RAT, LIVER, S-9, AROCLOR 1254 (10%), Method: PREINCUBATION): inactive; negative
- mutagenic call (Test System: AMES SALMONELLA TYPHIMURIUM, Strain/Indicator: TA1535, Metabolic Activation: HAMSTER, LIVER, S-9, AROCLOR 1254 (10%), Method: PREINCUBATION): inactive; negative
- mutagenic call (Test System: AMES SALMONELLA TYPHIMURIUM, Strain/Indicator: TA1535, Metabolic Activation: NONE, Method: PREINCUBATION): inactive; negative
- mutagenic call (Test System: AMES SALMONELLA TYPHIMURIUM, Strain/Indicator: TA1535, Metabolic Activation: RAT, LIVER, S-9, AROCLOR 1254 (10%), Method: PREINCUBATION): inactive; negative
- mutagenic call (Test System: AMES SALMONELLA TYPHIMURIUM, Strain/Indicator: TA1537, Metabolic Activation: HAMSTER, LIVER, S-9, AROCLOR 1254 (10%), Method: PREINCUBATION): active; positive
- mutagenic call (Test System: AMES SALMONELLA TYPHIMURIUM, Strain/Indicator: TA1537, Metabolic Activation: NONE, Method: PREINCUBATION): active; positive
- mutagenic call (Test System: AMES SALMONELLA TYPHIMURIUM, Strain/Indicator: TA1537, Metabolic Activation: RAT, LIVER, S-9, AROCLOR 1254 (10%), Method: PREINCUBATION): active; positive

SMILES: O=[N+]([O-])c1ccc2c(c1)nc(/C=N/OCc1ccccc1[N+](=O)[O-])n2Cc1ccccc1
- mutagenic call [1]: active; positive
- mutagenic call (Test System: AMES SALMONELLA TYPHIMURIUM, Strain/Indicator: TA98, Metabolic Activation: RAT, LIVER, S-9, PHENOBARBITAL AND BETA-NAPHTHOFLAVONE, Method: STANDARD PLATE): active; positive
- mutagenic call [2]: active; positive
- mutagenic call (Test System: AMES SALMONELLA TYPHIMURIUM, Strain/Indicator: TA100, Metabolic Activation: RAT, LIVER, S-9, PHENOBARBITAL AND BETA-NAPHTHOFLAVONE, Method: STANDARD PLATE): active; positive
